The target in assay [1] is Human Mer (residues R557-E882 with H628Q and R794A) (Homo sapiens (Human), UniProt Q12866). The experiment in a line: Human Mer kinase assay (33P radiometric, KinaseProfiler). Type of assay: biochemical. Particulars: 10 μM ATP.
The next assay deals with AXL (Homo sapiens (Human), UniProt P30530). Put plainly: AXL autophosphorylation ELISA in A-172 cells. It is filed as cell-based. Particulars: cellular, Gas6 stimulated. Summed up:
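Serum-starved (24 h) A-172 glioblastoma cells pretreated 1 h with compounds (8-point curve, 0.3% DMSO), then stimulated 15 min with 1 μg/mL Gas6. Lysate phospho-AXL measured by sandwich ELISA against a phospho-AXL standard; IC50 from 4-parameter logistic fit between DMSO and reference-inhibitor controls.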

Another assay has as its target Met (Homo sapiens (Human), UniProt P08581). The experiment in a line: Met autophosphorylation ELISA in PC-3 cells. It is filed as cell-based. To be noted: cellular, HGF stimulated, read-out: c-Met IC50. Summed up: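 Phospho-Met (panTyr) sandwich ELISA on lysates of PC-3 cells given 100 ng/mL HGF for 10 min after 1 h compound exposure (8-point curve, 0.3% DMSO) following 3 h serum starvation. Normalised to HGF-stimulated DMSO and reference-inhibitor wells; 4-parameter logistic IC50.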
A general note: In an ELISA, binding on a coated surface is turned into a signal by an enzyme label.

Assay [2] has as its target Human Axl (residues H473-A894 with Q764R) (Homo sapiens (Human), UniProt P30530, Q764R). The experiment in a line: Human AXL kinase assay (33P radiometric, KinaseProfiler). It is filed as biochemical. To be noted: 10 μM ATP.

Chain of AXL (P30530 26-894): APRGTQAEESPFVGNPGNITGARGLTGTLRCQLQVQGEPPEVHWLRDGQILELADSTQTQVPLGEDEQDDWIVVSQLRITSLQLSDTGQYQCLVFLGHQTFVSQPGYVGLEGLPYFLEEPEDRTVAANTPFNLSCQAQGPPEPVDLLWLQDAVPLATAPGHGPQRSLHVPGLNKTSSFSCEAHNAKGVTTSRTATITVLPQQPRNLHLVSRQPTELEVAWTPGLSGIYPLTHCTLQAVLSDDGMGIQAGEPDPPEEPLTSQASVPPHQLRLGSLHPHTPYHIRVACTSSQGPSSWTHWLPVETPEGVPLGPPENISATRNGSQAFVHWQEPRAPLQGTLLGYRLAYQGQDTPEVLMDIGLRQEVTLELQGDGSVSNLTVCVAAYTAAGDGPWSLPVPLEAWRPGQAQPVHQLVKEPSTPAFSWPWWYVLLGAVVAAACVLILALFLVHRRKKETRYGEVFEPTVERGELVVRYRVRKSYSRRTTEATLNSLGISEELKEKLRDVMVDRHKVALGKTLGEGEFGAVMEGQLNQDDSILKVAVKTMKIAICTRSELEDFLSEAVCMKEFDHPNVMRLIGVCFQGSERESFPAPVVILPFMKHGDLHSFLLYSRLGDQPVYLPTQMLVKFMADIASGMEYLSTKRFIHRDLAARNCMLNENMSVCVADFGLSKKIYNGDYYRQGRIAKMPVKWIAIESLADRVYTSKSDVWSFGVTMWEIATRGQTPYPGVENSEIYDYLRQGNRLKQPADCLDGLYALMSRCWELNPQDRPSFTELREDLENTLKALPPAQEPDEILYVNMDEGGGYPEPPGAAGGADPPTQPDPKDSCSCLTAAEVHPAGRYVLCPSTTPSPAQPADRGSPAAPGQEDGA
Chain of Human Mer (residues R557-E882 with H628Q and R794A) (Q12866 557-882, stated change not applied): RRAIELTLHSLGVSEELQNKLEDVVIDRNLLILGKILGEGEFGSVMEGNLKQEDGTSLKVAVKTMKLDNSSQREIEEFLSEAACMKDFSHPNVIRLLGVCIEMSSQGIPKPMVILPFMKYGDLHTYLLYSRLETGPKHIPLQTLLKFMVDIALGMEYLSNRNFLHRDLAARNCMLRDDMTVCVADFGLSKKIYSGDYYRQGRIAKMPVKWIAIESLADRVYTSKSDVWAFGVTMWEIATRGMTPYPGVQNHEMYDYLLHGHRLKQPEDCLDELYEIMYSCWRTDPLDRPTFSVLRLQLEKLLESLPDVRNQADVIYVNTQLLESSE
Chain of Human Axl (residues H473-A894 with Q764R) (P30530 473-894 Q764R): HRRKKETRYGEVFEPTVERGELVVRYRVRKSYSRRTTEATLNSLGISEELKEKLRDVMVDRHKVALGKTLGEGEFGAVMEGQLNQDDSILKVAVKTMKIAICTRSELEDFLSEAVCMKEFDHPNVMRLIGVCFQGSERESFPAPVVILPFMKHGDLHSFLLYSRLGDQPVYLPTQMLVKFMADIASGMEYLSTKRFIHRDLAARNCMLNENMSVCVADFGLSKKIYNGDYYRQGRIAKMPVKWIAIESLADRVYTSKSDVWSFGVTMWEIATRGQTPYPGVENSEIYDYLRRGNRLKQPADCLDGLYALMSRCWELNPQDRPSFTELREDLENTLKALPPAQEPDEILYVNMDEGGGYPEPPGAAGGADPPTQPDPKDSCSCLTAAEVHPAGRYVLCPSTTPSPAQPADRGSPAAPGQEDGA
Chain of Met (P08581 25-1390): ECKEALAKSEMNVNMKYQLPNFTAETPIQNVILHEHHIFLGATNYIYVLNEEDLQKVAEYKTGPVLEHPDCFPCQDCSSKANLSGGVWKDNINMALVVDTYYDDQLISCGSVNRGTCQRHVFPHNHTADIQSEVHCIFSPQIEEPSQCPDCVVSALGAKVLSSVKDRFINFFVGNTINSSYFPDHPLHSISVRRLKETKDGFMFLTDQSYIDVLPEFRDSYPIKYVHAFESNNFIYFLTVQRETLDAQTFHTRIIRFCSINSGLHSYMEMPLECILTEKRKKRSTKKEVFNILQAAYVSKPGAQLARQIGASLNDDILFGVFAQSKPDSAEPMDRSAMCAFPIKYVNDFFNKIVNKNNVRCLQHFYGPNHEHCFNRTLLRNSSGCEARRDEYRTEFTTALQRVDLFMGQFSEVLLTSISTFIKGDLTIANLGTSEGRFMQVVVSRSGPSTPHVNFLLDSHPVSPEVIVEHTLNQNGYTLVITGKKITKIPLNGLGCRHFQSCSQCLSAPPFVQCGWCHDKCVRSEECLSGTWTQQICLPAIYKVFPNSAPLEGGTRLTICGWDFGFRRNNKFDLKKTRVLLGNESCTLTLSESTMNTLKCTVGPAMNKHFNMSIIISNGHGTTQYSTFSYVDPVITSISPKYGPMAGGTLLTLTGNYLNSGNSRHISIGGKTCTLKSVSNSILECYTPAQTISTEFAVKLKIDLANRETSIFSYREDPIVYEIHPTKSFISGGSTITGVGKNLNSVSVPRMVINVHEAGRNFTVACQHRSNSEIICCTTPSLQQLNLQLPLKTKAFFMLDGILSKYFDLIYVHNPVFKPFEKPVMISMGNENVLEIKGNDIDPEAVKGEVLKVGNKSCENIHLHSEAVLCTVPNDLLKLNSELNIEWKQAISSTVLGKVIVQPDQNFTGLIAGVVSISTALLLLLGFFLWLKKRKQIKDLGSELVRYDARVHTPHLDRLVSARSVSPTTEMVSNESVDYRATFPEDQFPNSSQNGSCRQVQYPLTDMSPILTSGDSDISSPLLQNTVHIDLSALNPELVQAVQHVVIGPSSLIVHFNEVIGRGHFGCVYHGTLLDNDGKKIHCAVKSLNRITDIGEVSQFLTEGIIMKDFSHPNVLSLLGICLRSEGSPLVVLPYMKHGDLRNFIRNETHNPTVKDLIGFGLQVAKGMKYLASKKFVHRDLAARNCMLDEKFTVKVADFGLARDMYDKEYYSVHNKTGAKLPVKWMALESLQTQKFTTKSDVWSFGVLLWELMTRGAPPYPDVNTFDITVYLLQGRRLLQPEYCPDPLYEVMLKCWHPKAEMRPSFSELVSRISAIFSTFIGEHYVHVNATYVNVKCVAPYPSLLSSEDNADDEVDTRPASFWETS

What is called IC50 is the concentration that inhibits the measured activity by half. In the case of `CNC(=O)c1ccc2c(Oc3ccc(NC(=O)C4(C(=O)Nc5ccc(F)cc5)CC4)cc3)ccnc2c1` [Compound 165, 1-N′-(4-fluorophenyl)-1-N-[4-[7-(methylcarbamoyl)quinolin-4-yl]oxyphenyl]cyclopropane-1,1-dicarboxamide], the IC50 is ≤ 10 nM in assay [1], 10 to 100 nM against AXL, ≤ 10 nM on Met and ≤ 10 nM in assay [2].
On to `COc1cc2nccc(Oc3ccc(NC(=O)C4(C(=O)Nc5ccc(F)cc5)CC4)cc3)c2cc1-c1cccc(C#N)c1F` [Compound 175, 1-N-[4-[6-(3-cyano-2-fluorophenyl)-7-methoxyquinolin-4-yl]oxyphenyl]-1-N′-(4-fluorophenyl)cyclopropane-1,1-dicarboxamide], for which the IC50 in assay [1] was ≤ 10 nM; against AXL, 10 to 100 nM; at Met, 10 to 100 nM; in assay [2], 10 to 100 nM.
As for `COc1cc2nccc(Oc3ccc(NC(=O)C4(C(=O)Nc5ccc(F)cc5)CC4)cc3)c2cc1-c1ccccn1` [Compound 176, 1-N′-(4-fluorophenyl)-1-N-[4-(7-methoxy-6-pyridin-2-ylquinolin-4-yl)oxyphenyl]cyclopropane-1,1-dicarboxamide], the concentration for half-maximal inhibition (IC50) is ≤ 10 nM in assay [1], 10 to 100 nM against AXL, 10 to 100 nM on Met and ≤ 10 nM in assay [2].
For `COc1cc2nccc(Oc3ccc(NC(=O)C4(C(=O)Nc5ccc(F)cc5)CC4)cc3)c2cc1-c1ccc(C)o1` [Compound 180, 1-N′-(4-fluorophenyl)-1-N-[4-[7-methoxy-6-(5-methylfuran-2-yl)quinolin-4-yl]oxyphenyl]cyclopropane-1,1-dicarboxamide], the IC50 is ≤ 10 nM in assay [1], ≤ 10 nM at AXL, 10 to 100 nM on Met and 10 to 100 nM in assay [2].
On to `COc1cc2nccc(Oc3ccc(NC(=O)C4(C(=O)Nc5ccc(F)cc5)CC4)cc3)c2cc1-c1cnn(C)c1` [Compound 182, 1-N′-(4-fluorophenyl)-1-N-[4-[7-methoxy-6-(1-methylpyrazol-4-yl)quinolin-4-yl]oxyphenyl]cyclopropane-1,1-dicarboxamide], for which the IC50 in assay [1] is ≤ 10 nM; at AXL, ≤ 10 nM; on Met it was 10 to 100 nM; in assay [2], 10 to 100 nM.
On to `COc1cc2nccc(Oc3ccc(NC(=O)C4(C(=O)Nc5ccc(F)cc5)CC4)cc3)c2cc1-c1cnoc1` [Compound 183, 1-N′-(4-fluorophenyl)-1-N-[4-[7-methoxy-6-(1,2-oxazol-4-yl)quinolin-4-yl]oxyphenyl]cyclopropane-1,1-dicarboxamide], for which the half-inhibitory concentration (IC50) was ≤ 10 nM in assay [1], 10 to 100 nM against AXL, 10 to 100 nM at Met and 10 to 100 nM in assay [2].
`COc1cc2nccc(Oc3ccc(NC(=O)C4(C(=O)Nc5ccc(F)cc5)CC4)cc3)c2cc1-c1c(C)noc1C` [Compound 184, 1-N-[4-[6-(3,5-dimethyl-1,2-oxazol-4-yl)-7-methoxyquinolin-4-yl]oxyphenyl]-1-N′-(4-fluorophenyl)cyclopropane-1,1-dicarboxamide]: the IC50 in assay [1] is ≤ 10 nM; on AXL it was 100 to 300 nM; on Met, 10 to 100 nM; in assay [2], 10 to 100 nM.
With `COc1cc2nccc(Oc3ccc(NC(=O)C4(C(=O)Nc5ccc(F)cc5)CC4)cc3)c2cc1-c1ccn[nH]1` [Compound 185, 1-N′-(4-fluorophenyl)-1-N-[4-[7-methoxy-6-(1H-pyrazol-5-yl)quinolin-4-yl]oxyphenyl]cyclopropane-1,1-dicarboxamide], the IC50 in assay [1] was ≤ 10 nM; on AXL, 10 to 100 nM; at Met it was 10 to 100 nM; in assay [2], 10 to 100 nM.
Consider `COc1cc2nccc(Oc3ccc(NC(=O)C4(C(=O)Nc5ccc(F)cc5)CC4)cc3)c2cc1-c1cn[nH]c1` [Compound 186, 1-N′-(4-fluorophenyl)-1-N-[4-[7-methoxy-6-(1H-pyrazol-4-yl)quinolin-4-yl]oxyphenyl]cyclopropane-1,1-dicarboxamide], for which the concentration for half-maximal inhibition (IC50) in assay [1] is ≤ 10 nM; against AXL, ≤ 10 nM; on Met, 10 to 100 nM; in assay [2] it was 10 to 100 nM.
For the molecule `COc1cc2nccc(Oc3ccc(NC(=O)C4(C(=O)Nc5ccc(F)cc5)CC4)cc3)c2cc1C1CC1` [Compound 187, 1-N-[4-(6-cyclopropyl-7-methoxyquinolin-4-yl)oxyphenyl]-1-N′-(4-fluorophenyl)cyclopropane-1,1-dicarboxamide], the half-maximal inhibitory concentration (IC50) in assay [1] is ≤ 10 nM; against AXL it was 10 to 100 nM; at Met, 10 to 100 nM; in assay [2] it was ≤ 10 nM.
For `COc1cc2nccc(Oc3ccc(NC(=O)C4(C(=O)Nc5ccc(F)cc5)CC4)cc3)c2cc1-c1ccc[nH]1` [Compound 188, 1-N′-(4-fluorophenyl)-1-N-[4-[7-methoxy-6-(1H-pyrrol-2-yl)quinolin-4-yl]oxyphenyl]cyclopropane-1,1-dicarboxamide], the IC50 is ≤ 10 nM in assay [1], ≤ 10 nM at AXL, 10 to 100 nM on Met and 10 to 100 nM in assay [2].
Regarding `COc1cc2nccc(Oc3ccc(NC(=O)C4(C(=O)Nc5ccc(F)cc5)CC4)cc3)c2cc1C1(O)CN(C(=O)OC(C)(C)C)C1` [Compound 195, tert-butyl 3-[4-[4-[[1-[(4-fluorophenyl)carbamoyl]cyclopropanecarbonyl]amino]phenoxy]-7-methoxyquinolin-6-yl]-3-hydroxyazetidine-1-carboxylate], the IC50 in assay [1] is ≤ 10 nM; against AXL, 100 to 300 nM; on Met, 10 to 100 nM; in assay [2] it was 10 to 100 nM.
`COc1cc2nccc(Oc3ccc(NC(=O)C4(C(=O)Nc5ccc(F)cc5)CC4)cc3)c2cc1C1(O)COC1` [Compound 196, 1-N′-(4-fluorophenyl)-1-N-[4-[6-(3-hydroxyoxetan-3-yl)-7-methoxyquinolin-4-yl]oxyphenyl]cyclopropane-1,1-dicarboxamide]: the IC50 was ≤ 10 nM in assay [1], 10 to 100 nM against AXL, 10 to 100 nM on Met and ≤ 10 nM in assay [2].
`COc1cc2nccc(Oc3ccc(NC(=O)C4(C(=O)Nc5ccc(F)cc5)CC4)cc3)c2cc1C1(O)CNC1` [Compound 197, 1-N′-(4-fluorophenyl)-1-N-[4-[6-(3-hydroxyazetidin-3-yl)-7-methoxyquinolin-4-yl]oxyphenyl]cyclopropane-1,1-dicarboxamide]: the IC50 is ≤ 10 nM in assay [1], 100 to 300 nM against AXL, 100 to 300 nM on Met and 10 to 100 nM in assay [2].
In the case of `COc1cc2nccc(Oc3ccc(NC(=O)C4(C(=O)Nc5ccc(F)cc5)CC4)cc3)c2cc1N1CCC1` [Compound 198, 1-N-[4-[6-(azetidin-1-yl)-7-methoxyquinolin-4-yl]oxyphenyl]-1-N′-(4-fluorophenyl)cyclopropane-1,1-dicarboxamide], the IC50 in assay [1] was ≤ 10 nM; on AXL, 10 to 100 nM; on Met it was 10 to 100 nM; in assay [2] it was 10 to 100 nM.
As to `COc1cc2nccc(Oc3ccc(NC(=O)C4(C(=O)Nc5ccc(F)cc5)CC4)cc3)c2cc1N1CC(O)C1` [Compound 199, 1-N′-(4-fluorophenyl)-1-N-[4-[6-(3-hydroxyazetidin-1-yl)-7-methoxyquinolin-4-yl]oxyphenyl]cyclopropane-1,1-dicarboxamide], the concentration for half-maximal inhibition (IC50) (in assay [1]; against AXL; at Met; in assay [2]) was ≤ 10 nM throughout.
For `COc1cc2nccc(Oc3ccc(NC(=O)C4(C(=O)Nc5ccc(F)cc5)CC4)cc3)c2cc1N1CC(F)(F)C1` [Compound 200, 1-N-[4-[6-(3,3-difluoroazetidin-1-yl)-7-methoxyquinolin-4-yl]oxyphenyl]-1-N′-(4-fluorophenyl)cyclopropane-1,1-dicarboxamide], the IC50 in assay [1] is ≤ 10 nM; on AXL, 10 to 100 nM; at Met it was 10 to 100 nM; in assay [2], 10 to 100 nM.
Turning to `COc1cc2nccc(Oc3ccc(NC(=O)C4(C(=O)Nc5ccc(F)cc5)CC4)cc3)c2cc1-c1cccnc1` [Compound 201, 1-N′-(4-Fluorophenyl)-1-N-[4-(7-methoxy-6-pyridin-3-ylquinolin-4-yl)oxyphenyl]cyclopropane-1,1-dicarboxamide], the 50% inhibitory concentration (IC50) in assay [1] is ≤ 10 nM; against AXL it was 10 to 100 nM; on Met, 10 to 100 nM; in assay [2], ≤ 10 nM.
Consider `COc1cc2nccc(Oc3ccc(NC(=O)C4(C(=O)Nc5ccc(F)cc5)CC4)cc3)c2cc1-c1ccncc1` [Compound 202, 1-N′-(4-Fluorophenyl)-1-N-[4-(7-methoxy-6-pyridin-4-ylquinolin-4-yl)oxyphenyl]cyclopropane-1,1-dicarboxamide], for which the IC50 was ≤ 10 nM in assay [1], 10 to 100 nM against AXL, 10 to 100 nM at Met and 10 to 100 nM in assay [2].
With `COc1cc2nccc(Oc3ccc(NC(=O)C4(C(=O)Nc5ccc(F)cc5)CC4)cc3)c2cc1S(N)(=O)=O` [Compound 206, 1-N′-(4-Fluorophenyl)-1-N-[4-(7-methoxy-6-sulfamoylquinolin-4-yl)oxyphenyl]cyclopropane-1,1-dicarboxamide], the IC50 (in assay [1]; against AXL; at Met; in assay [2]) was ≤ 10 nM in each case.

The values above are taken from patent publication US11542259B2, “Compounds for the treatment of kinase-dependent disorders” (Exelixis, Inc., priority 2018, dated 2023).
